# Measurements reported in PMC12090182, “Repurposing of the RIPK1-Selective Benzo[1,4]oxazepin-4-one Scaffold for the Development of a Type III LIMK1/2 Inhibitor” (ACS Chemical Biology, 2025).
# Experiments:
# Assay in all cases: scanMAX KINOMEscan (Eurofins)
# Assay type in all cases: binding
# [1] = biological target: ACVR1B (Homo sapiens, UniProt P36896); conditions: 1000 nM, read-out: Percent Control
# From the text: (§1) Supplement cb5c00097_si_002.xlsx, sheet "Table S6 (Eurofins Selectivity)" | column: Percent Control
# [2] = biological target: CSNK1G3 (Homo sapiens, UniProt Q9Y6M4); conditions: read-out: Percent Control
# From the text: as §1
# [3] = biological target: MAP4K3 (Homo sapiens, UniProt Q8IVH8); conditions: 1000 nM, read-out: Percent Control
# From the text: as §1
# [4] = biological target: TAOK1 (Homo sapiens, UniProt Q7L7X3); conditions: compound concentration 100 nM; Entrez TAOK1; read-out: Percent Control
# From the text: as §1
# [5] = biological target: SgK110 (Homo sapiens, UniProt P0C264); conditions: compound concentration 100 nM; Entrez SgK110; read-out: Percent Control
# From the text: as §1
# [6] = biological target: PIK3C2B (Homo sapiens, UniProt O00750); conditions: compound concentration 100 nM; Entrez PIK3C2B; read-out: Percent Control
# From the text: as §1
# [7] = biological target: JAK1(JH2domain-pseudokinase) (Homo sapiens, UniProt P23458); conditions: 1000 nM, read-out: Percent Control
# From the text: as §1
# [8] = biological target: ABL1-phosphorylated (Homo sapiens, UniProt P00519); conditions: read-out: Percent Control
# From the text: as §1
# [9] = biological target: ERN1 (Homo sapiens, UniProt O75460); conditions: read-out: Percent Control
# From the text: as §1
# [10] = biological target: NEK1 (Homo sapiens, UniProt Q96PY6); conditions: compound concentration 100 nM; Entrez NEK1; read-out: Percent Control
# From the text: as §1
# [11] = biological target: EPHA2 (Homo sapiens, UniProt P29317); conditions: read-out: Percent Control
# From the text: as §1
# [12] = biological target: RSK3(Kin.Dom.2-C-terminal) (Homo sapiens, UniProt Q15349); conditions: compound concentration 100 nM; Entrez RPS6KA2; read-out: Percent Control
# From the text: as §1
# [13] = biological target: LYN (Homo sapiens, UniProt P07948); conditions: 1000 nM, read-out: Percent Control
# From the text: as §1
# [14] = biological target: PHKG1 (Homo sapiens, UniProt Q16816); conditions: 1000 nM, read-out: Percent Control
# From the text: as §1
# [15] = biological target: JNK2 (Homo sapiens, UniProt P45984); conditions: 1000 nM, read-out: Percent Control
# From the text: as §1
# [16] = biological target: PFCDPK1(P.falciparum) (Plasmodium falciparum, UniProt P62344); conditions: compound concentration 100 nM; Entrez CDPK1; read-out: Percent Control
# From the text: as §1
# [17] = biological target: TIE1 (Homo sapiens, UniProt P35590); conditions: 1000 nM, read-out: Percent Control
# From the text: as §1
# [18] = biological target: EPHA6 (Homo sapiens, UniProt Q9UF33); conditions: 1000 nM, read-out: Percent Control
# From the text: as §1
# [19] = biological target: PRKCE (Homo sapiens, UniProt Q02156); conditions: compound concentration 100 nM; Entrez PRKCE; read-out: Percent Control
# From the text: as §1
# [20] = biological target: MAP4K2 (Homo sapiens, UniProt Q12851); conditions: 1000 nM, read-out: Percent Control
# From the text: as §1
# [21] = biological target: CSF1R (Homo sapiens, UniProt P07333); conditions: read-out: Percent Control
# From the text: as §1
# [22] = biological target: BIKE (Homo sapiens, UniProt Q9NSY1); conditions: 1000 nM, read-out: Percent Control
# From the text: as §1
# [23] = biological target: TRPM6 (Homo sapiens, UniProt Q9BX84); conditions: compound concentration 100 nM; Entrez TRPM6; read-out: Percent Control
# From the text: as §1
# [24] = biological target: p38-beta (Homo sapiens, UniProt Q15759); conditions: 1000 nM, read-out: Percent Control
# From the text: as §1
# [25] = biological target: DAPK2 (Homo sapiens, UniProt Q9UIK4); conditions: 1000 nM, read-out: Percent Control
# From the text: as §1
# [26] = biological target: RPS6KA5(Kin.Dom.1-N-terminal) (Homo sapiens, UniProt O75582); conditions: compound concentration 100 nM; Entrez RPS6KA5; read-out: Percent Control
# From the text: as §1
# [27] = biological target: EPHB2 (Homo sapiens, UniProt P29323); conditions: 1000 nM, read-out: Percent Control
# From the text: as §1
# [28] = biological target: ERBB3 (Homo sapiens, UniProt P21860); conditions: 1000 nM, read-out: Percent Control
# From the text: as §1
# [29] = biological target: MINK (Homo sapiens, UniProt Q8N4C8); conditions: 1000 nM, read-out: Percent Control
# From the text: as §1
# [30] = biological target: PKN2 (Homo sapiens, UniProt Q16513); conditions: compound concentration 100 nM; Entrez PKN2; read-out: Percent Control
# From the text: as §1
# [31] = biological target: AXL (Homo sapiens, UniProt P30530); conditions: read-out: Percent Control
# From the text: as §1
# [32] = biological target: BMPR1A (Homo sapiens, UniProt P36894); conditions: 1000 nM, read-out: Percent Control
# From the text: as §1
# [33] = biological target: FGFR1 (Homo sapiens, UniProt P11362); conditions: read-out: Percent Control
# From the text: as §1
# [34] = biological target: RSK4(Kin.Dom.1-N-terminal) (Homo sapiens, UniProt Q9UK32); conditions: compound concentration 100 nM; Entrez RPS6KA6; read-out: Percent Control
# From the text: as §1
# Chain of AXL (P30530 26-894): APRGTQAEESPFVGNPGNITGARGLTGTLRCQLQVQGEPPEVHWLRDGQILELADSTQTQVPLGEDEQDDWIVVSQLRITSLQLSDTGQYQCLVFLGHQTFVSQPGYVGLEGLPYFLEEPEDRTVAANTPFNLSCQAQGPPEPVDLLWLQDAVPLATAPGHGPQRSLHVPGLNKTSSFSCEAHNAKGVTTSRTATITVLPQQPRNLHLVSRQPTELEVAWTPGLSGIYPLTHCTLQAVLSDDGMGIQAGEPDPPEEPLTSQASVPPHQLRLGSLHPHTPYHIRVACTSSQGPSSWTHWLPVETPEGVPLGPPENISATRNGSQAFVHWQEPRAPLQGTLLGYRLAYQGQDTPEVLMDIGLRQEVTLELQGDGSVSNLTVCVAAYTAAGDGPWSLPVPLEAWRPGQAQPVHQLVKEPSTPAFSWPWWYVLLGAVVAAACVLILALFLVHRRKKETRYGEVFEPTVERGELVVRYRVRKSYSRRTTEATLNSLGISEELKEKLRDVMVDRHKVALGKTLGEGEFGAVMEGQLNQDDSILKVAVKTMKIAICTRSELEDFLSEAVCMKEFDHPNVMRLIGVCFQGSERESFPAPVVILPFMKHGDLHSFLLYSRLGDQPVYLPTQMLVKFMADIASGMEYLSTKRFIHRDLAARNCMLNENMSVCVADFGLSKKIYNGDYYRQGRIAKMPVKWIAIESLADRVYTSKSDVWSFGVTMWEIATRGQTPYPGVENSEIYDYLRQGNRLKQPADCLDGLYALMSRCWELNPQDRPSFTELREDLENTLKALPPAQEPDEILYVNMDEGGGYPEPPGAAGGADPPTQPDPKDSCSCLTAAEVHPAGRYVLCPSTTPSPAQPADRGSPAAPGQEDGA
# Chain of ERN1 (O75460 19-977): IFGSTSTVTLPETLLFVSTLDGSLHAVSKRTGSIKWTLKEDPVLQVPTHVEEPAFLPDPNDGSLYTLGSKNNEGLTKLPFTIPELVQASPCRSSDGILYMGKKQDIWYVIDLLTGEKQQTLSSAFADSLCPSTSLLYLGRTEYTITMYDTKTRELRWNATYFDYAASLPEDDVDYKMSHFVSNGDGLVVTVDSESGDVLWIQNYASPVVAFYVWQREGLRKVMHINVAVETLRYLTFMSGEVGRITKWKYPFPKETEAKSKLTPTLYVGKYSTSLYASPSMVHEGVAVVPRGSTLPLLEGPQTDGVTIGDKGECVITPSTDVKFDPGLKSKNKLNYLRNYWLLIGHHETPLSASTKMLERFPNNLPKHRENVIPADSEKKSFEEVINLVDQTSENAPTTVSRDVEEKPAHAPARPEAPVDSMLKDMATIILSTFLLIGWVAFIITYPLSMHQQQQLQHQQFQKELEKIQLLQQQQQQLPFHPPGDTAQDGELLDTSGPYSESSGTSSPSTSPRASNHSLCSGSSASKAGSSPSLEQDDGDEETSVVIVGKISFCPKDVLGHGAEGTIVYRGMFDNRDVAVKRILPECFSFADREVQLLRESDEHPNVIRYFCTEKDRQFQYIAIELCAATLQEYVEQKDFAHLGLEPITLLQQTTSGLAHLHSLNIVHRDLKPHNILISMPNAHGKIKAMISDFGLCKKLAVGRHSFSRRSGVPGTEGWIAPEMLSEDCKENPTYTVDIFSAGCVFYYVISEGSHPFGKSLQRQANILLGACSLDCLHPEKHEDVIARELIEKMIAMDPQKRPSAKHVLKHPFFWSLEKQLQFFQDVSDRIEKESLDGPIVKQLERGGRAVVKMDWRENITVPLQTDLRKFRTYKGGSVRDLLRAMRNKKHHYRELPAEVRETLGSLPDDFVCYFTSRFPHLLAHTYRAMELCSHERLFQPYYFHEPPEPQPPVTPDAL
# Chain of EPHA2 (P29317 24-976): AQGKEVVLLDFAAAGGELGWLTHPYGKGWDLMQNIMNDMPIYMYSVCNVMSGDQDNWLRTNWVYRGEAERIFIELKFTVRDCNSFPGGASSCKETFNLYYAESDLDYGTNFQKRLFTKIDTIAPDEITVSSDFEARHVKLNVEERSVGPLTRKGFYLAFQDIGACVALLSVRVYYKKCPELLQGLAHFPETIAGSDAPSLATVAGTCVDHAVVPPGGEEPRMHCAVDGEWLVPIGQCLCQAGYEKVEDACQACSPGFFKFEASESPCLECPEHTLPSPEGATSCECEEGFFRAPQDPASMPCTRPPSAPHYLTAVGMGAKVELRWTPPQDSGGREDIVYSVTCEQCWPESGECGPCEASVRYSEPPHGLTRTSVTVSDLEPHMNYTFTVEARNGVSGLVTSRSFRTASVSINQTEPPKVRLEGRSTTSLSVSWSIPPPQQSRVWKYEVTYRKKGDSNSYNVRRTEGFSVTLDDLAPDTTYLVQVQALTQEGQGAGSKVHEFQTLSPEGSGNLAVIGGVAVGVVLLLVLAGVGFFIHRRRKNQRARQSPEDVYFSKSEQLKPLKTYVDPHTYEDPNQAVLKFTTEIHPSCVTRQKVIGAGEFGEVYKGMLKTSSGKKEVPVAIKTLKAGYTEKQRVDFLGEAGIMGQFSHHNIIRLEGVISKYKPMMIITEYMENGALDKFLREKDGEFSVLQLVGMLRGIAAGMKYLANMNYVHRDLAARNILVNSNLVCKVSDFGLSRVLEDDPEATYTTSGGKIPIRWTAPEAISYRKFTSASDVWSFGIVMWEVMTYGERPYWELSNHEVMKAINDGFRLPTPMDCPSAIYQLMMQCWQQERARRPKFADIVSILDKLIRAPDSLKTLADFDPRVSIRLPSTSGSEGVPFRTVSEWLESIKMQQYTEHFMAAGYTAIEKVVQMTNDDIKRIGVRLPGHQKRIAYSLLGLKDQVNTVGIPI
# Chain of FGFR1 (P11362 22-822): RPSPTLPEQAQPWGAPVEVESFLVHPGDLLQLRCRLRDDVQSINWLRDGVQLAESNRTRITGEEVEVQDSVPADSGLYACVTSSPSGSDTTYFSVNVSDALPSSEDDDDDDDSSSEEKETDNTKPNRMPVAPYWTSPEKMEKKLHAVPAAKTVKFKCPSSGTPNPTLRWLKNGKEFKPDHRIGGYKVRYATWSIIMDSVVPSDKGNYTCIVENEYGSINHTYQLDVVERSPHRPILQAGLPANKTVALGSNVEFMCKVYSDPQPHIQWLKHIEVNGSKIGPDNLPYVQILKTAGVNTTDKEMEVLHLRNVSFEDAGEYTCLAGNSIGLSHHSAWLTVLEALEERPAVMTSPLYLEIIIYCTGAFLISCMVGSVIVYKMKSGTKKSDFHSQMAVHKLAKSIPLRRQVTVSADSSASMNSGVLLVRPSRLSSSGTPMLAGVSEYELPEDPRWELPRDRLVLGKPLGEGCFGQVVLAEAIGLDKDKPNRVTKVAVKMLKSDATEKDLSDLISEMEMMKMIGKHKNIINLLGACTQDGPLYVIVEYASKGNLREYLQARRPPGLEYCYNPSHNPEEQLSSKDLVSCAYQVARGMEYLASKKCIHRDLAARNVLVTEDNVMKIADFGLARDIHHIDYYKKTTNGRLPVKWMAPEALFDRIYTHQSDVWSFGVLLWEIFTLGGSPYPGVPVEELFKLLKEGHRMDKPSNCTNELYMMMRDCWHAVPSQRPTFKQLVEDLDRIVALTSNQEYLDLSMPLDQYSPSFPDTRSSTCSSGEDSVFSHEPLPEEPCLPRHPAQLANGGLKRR
# Chain of ABL1-phosphorylated (P00519 whole entry): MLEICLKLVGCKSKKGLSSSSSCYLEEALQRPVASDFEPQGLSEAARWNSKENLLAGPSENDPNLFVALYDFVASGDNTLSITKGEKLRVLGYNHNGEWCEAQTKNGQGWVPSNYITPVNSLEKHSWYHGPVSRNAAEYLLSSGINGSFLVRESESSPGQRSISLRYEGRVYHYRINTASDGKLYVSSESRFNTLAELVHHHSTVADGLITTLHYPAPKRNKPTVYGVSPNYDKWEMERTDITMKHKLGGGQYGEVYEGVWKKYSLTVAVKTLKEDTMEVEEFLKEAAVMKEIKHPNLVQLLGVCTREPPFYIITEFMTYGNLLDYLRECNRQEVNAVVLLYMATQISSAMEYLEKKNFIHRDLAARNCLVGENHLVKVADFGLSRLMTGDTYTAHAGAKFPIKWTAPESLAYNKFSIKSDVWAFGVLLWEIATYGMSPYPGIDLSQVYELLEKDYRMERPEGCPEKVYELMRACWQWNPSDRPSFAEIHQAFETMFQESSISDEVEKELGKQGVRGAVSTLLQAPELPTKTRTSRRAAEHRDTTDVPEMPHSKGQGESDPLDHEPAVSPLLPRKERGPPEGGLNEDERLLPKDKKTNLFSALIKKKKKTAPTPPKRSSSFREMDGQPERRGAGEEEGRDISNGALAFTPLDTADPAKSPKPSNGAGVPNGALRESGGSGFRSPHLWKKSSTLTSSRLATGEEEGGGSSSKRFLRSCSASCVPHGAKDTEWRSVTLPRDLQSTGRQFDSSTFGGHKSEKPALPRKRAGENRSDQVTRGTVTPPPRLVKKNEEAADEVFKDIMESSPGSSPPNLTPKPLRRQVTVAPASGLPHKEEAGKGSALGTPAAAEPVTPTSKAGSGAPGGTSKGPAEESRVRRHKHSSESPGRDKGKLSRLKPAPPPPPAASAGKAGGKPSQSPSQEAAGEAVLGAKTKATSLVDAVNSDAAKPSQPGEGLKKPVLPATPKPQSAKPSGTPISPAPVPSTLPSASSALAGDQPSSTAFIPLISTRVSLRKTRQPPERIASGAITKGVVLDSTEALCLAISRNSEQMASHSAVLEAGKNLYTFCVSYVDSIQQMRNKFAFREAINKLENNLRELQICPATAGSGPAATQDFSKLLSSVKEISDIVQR
# Chain of SgK110 (P0C264 whole entry): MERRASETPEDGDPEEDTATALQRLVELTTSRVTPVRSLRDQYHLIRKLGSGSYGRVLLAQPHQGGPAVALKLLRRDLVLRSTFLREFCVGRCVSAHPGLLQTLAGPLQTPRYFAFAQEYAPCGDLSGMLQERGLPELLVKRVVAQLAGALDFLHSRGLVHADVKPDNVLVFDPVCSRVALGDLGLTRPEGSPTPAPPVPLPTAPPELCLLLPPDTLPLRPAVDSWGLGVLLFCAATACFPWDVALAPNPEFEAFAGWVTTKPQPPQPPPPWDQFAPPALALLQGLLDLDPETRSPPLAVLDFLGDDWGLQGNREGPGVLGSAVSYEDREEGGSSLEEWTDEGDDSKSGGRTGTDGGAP
structure (smiles),measurement,setting,value
"CN1C(=O)[C@@H](N2CCc3c(nn(Cc4ccccc4)c3C(N)=O)C2=O)COc2cc(Cl)ccc21 [Compound 10, (S)-2-benzyl-6-(8-chloro-5-methyl-4-oxo-2,3,4,5-tetrahydrobenzo[b][1,4]oxazepin-3-yl)-7-oxo-4,5,6,7-tetrahydro-2H-pyrazolo[3,4-c]pyridine-3-carboxamide]",remaining binding at 1 µM,[1],86%
same,remaining binding at 1 µM,[2]; 1000 nM,100%
same,remaining binding at 0.1 µM,"[2]; compound concentration 100 nM, Entrez CSNK1G3",98%
same,remaining binding at 1 µM,[3],92%
same,remaining binding at 0.1 µM,[4],100%
same,remaining binding at 0.1 µM,[5],93%
same,remaining binding at 0.1 µM,[6],86%
same,remaining binding at 1 µM,[7],94%
same,remaining binding at 1 µM,[8]; 1000 nM,100%
same,remaining binding at 0.1 µM,"[8]; compound concentration 100 nM, Entrez ABL1",97%
same,remaining binding at 1 µM,[9]; 1000 nM,100%
same,remaining binding at 0.1 µM,"[9]; compound concentration 100 nM, Entrez ERN1",100%
same,remaining binding at 0.1 µM,[10],76%
same,remaining binding at 1 µM,[11]; 1000 nM,100%
same,remaining binding at 0.1 µM,"[11]; compound concentration 100 nM, Entrez EPHA2",100%
same,remaining binding at 0.1 µM,[12],100%
same,remaining binding at 1 µM,[13],77%
same,remaining binding at 1 µM,[14],93%
same,remaining binding at 1 µM,[15],89%
same,remaining binding at 0.1 µM,[16],97%
same,remaining binding at 1 µM,[17],94%
same,remaining binding at 1 µM,[18],86%
same,remaining binding at 0.1 µM,[19],91%
same,remaining binding at 1 µM,[20],88%
same,remaining binding at 1 µM,[21]; 1000 nM,100%
same,remaining binding at 0.1 µM,"[21]; compound concentration 100 nM, Entrez CSF1R",83%
same,remaining binding at 1 µM,[22],82%
same,remaining binding at 0.1 µM,[23],100%
same,remaining binding at 1 µM,[24],97%
same,remaining binding at 1 µM,[25],86%
same,remaining binding at 0.1 µM,[26],92%
same,remaining binding at 1 µM,[27],81%
same,remaining binding at 1 µM,[28],85%
same,remaining binding at 1 µM,[29],95%
same,remaining binding at 0.1 µM,[30],90%
same,remaining binding at 1 µM,[31]; 1000 nM,100%
same,remaining binding at 0.1 µM,"[31]; compound concentration 100 nM, Entrez AXL",95%
same,remaining binding at 1 µM,[32],80%
same,remaining binding at 1 µM,[33]; 1000 nM,100%
same,remaining binding at 0.1 µM,"[33]; compound concentration 100 nM, Entrez FGFR1",88%
same,remaining binding at 0.1 µM,[34],100%
